ChEMBL document CHEMBL4680185, “Discovery of novel cyclin-dependent kinase (CDK) and histone deacetylase (HDAC) dual inhibitors with potent in vitro and in vivo anticancer activity” (Eur J Med Chem, 2020)

Tests used:
Experiment in all cases: cells
[1] = tested on: HCT-116; format: functional; settings: Homo sapiens, time 72 hrs, read-out: GI
[2] = tested on: NCI-H460; format: functional; settings: Homo sapiens, time 72 hrs, read-out: GI
[3] = tested on: HCT-116; format: functional; settings: Homo sapiens, time 72 hrs, read-out: GI; remark: listed apart in the source
[4] = tested on: NCI-H460; format: functional; settings: Homo sapiens, time 72 hrs, read-out: GI; remark: listed apart in the source
[5] = tested on: HCT-116; format: functional, cell-based; settings: Homo sapiens, HCT-116, 72 h
Description: Antiproliferative activity against human HCT116 cells assessed as inhibition of cell growth incubated for 72 hrs by CCK-8 assay

[6] = tested on: NCI-H460; format: functional, cell-based; settings: Homo sapiens, NCI-H460, 72 h
Description: Antiproliferative activity against human H460 cells assessed as inhibition of cell growth incubated for 72 hrs by CCK-8 assay

[7] = tested on: A-375; format: functional, cell-based; settings: Homo sapiens, A-375, 72 h
Description: Antiproliferative activity against human A375 cells assessed as inhibition of cell growth incubated for 72 hrs by CCK-8 assay

[8] = tested on: HeLa; format: functional, cell-based; settings: Homo sapiens, 72 h
Description: Antiproliferative activity against human Hela cells assessed as inhibition of cell growth incubated for 72 hrs by CCK-8 assay

[9] = tested on: SMMC-7721; format: functional, cell-based; settings: Homo sapiens, SMMC-7721, 72 h
Description: Antiproliferative activity against human SMMC7721 cells assessed as inhibition of cell growth incubated for 72 hrs by CCK-8 assay

| SMILES | inhibition of growth at 8 µM [1] | inhibition of growth at 8 µM [2] | inhibition of growth at 2 µM [3] | inhibition of growth at 2 µM [4] | IC50 [5] | IC50 [6] | IC50 [7] | IC50 [8] | IC50 [9] |
| --- | --- | --- | --- | --- | --- | --- | --- | --- | --- |
| Nc1ccccc1NC(=O)Cc1ccc(NC(=O)c2n[nH]cc2NC(=O)c2ccccc2F)cc1 | 20.4% | 23.4% | 16.5% | 6.06% | – | – | – | – | – |
| O=C(Cc1ccc(NC(=O)c2n[nH]cc2NC(=O)c2ccccc2F)cc1)NO | 14.3% | 21.4% | 1.04% | 9.5% | – | – | – | – | – |
| O=C(Cc1ccc(NC(=O)c2n[nH]cc2NC(=O)c2c(Cl)cccc2Cl)cc1)NO | 75.8% | 75.1% | 62.1% | 10.5% | 2.4 µM | 6.88 µM | 4.61 µM | 7.15 µM | 12.3 µM |
| O=C(CCCCCCNC(=O)c1n[nH]cc1NC(=O)c1c(Cl)cccc1Cl)NO | 20.1% | 17.9% | 1.07% | 17% | – | – | – | – | – |
| O=C(Cc1ccc(NC(=O)c2n[nH]cc2NC(=O)c2c(F)cccc2Cl)cc1)NO | 44.9% | 37% | 21.7% | 12.5% | – | – | – | – | – |
| Nc1ccccc1NC(=O)Cc1ccc(NC(=O)c2n[nH]cc2NC(=O)c2c(F)cccc2F)cc1 | 81.6% | 73.8% | 76.8% | 3.52% | 3.46 µM | 4.99 µM | 2.97 µM | 8.89 µM | 16.5 µM |
| O=C(CCCNC(=O)c1n[nH]cc1NC(=O)c1c(F)cccc1F)NO | 6.54% | 25.3% | 0.91% | 13% | – | – | – | – | – |
| O=C(NO)c1ccc(CNC(=O)c2n[nH]cc2NC(=O)c2c(F)cccc2F)cc1 | 64.5% | 7.33% | 25% | 0.46% | – | – | – | – | – |
| COc1ccccc1C(=O)Nc1c[nH]nc1C(=O)NCc1ccc(C(=O)NO)cc1 | 68.8% | 45.6% | 43.8% | 16% | – | – | – | – | – |
| O=C(CCCCCCNC(=O)c1n[nH]cc1NC(=O)c1c(F)cccc1Cl)NO | 15.7% | 28.7% | 10% | 0.88% | – | – | – | – | – |
| O=C(NO)c1ccc(CNC(=O)c2n[nH]cc2NC(=O)c2ccccc2Cl)cc1 | 71.6% | 29.8% | 53.8% | 26.6% | 2.4 µM | 6.17 µM | 6.42 µM | 16.2 µM | 21.8 µM |
| Nc1ccccc1NC(=O)c1ccc(CNC(=O)c2n[nH]cc2NC(=O)c2ccccc2Cl)cc1 | 84.4% | 17.4% | 63.7% | 5.54% | 0.9 µM | 6.36 µM | 2.11 µM | 10.5 µM | 12.9 µM |
| Nc1ccccc1NC(=O)Cc1ccc(NC(=O)c2n[nH]cc2NC(=O)c2ccccc2Cl)cc1 | 52% | 27.8% | 29.2% | 3.08% | – | – | – | – | – |
| Nc1ccccc1NC(=O)c1ccc(CNC(=O)c2n[nH]cc2NC(=O)c2c(F)cccc2F)cc1 | 79.1% | 80.5% | 73.1% | 13.9% | 1.13 µM | 7.79 µM | 1.7 µM | 4.48 µM | 15.2 µM |
| O=C(NO)c1ccc(CNC(=O)c2n[nH]cc2NC(=O)c2ccccc2)cc1 | 61.7% | 31.6% | 29.4% | 12% | – | – | – | – | – |
| COc1ccccc1C(=O)Nc1c[nH]nc1C(=O)Nc1ccc(CC(=O)Nc2ccccc2N)cc1 | 30.5% | 26.8% | 13.6% | 3.12% | – | – | – | – | – |
| Nc1ccccc1NC(=O)c1ccc(CNC(=O)c2n[nH]cc2NC(=O)c2ccccc2)cc1 | 88.6% | 61.7% | 62.9% | 11.8% | 1.66 µM | 6.32 µM | 1.59 µM | 4.06 µM | 6.62 µM |
| O=C(NO)c1ccc(CNC(=O)c2n[nH]cc2NC(=O)c2c(Cl)cccc2Cl)cc1 | 81.9% | 57.4% | 68.7% | 45.4% | 0.5 µM | 10.6 µM | 5.05 µM | 4.84 µM | 14.6 µM |
| O=C(CCCCCNC(=O)c1n[nH]cc1NC(=O)c1c(F)cccc1F)NO | 59.4% | 28.8% | 4.87% | 22.9% | – | – | – | – | – |
| Nc1ccccc1NC(=O)Cc1ccc(NC(=O)c2n[nH]cc2NC(=O)c2ccccc2)cc1 | 69.2% | 8.93% | 60% | 0.37% | – | – | – | – | – |
| O=C(CCCCCCNC(=O)c1n[nH]cc1NC(=O)c1c(F)cccc1F)NO | 13.8% | 6.84% | 12.1% | 3.57% | – | – | – | – | – |
| Nc1ccccc1NC(=O)c1ccc(CNC(=O)c2n[nH]cc2NC(=O)c2ccccc2F)cc1 | 81.2% | 57.6% | 39.8% | 7.25% | 4.8 µM | 9.99 µM | 2.27 µM | 3.44 µM | 6.85 µM |
| O=C(Cc1ccc(NC(=O)c2n[nH]cc2NC(=O)c2ccccc2)cc1)NO | 14.2% | 23.1% | 9.56% | 11.8% | – | – | – | – | – |
| O=C(NO)c1ccc(CNC(=O)c2n[nH]cc2NC(=O)c2c(F)cccc2Cl)cc1 | 59.3% | 27.7% | – | – | – | – | – | – | – |
| COc1ccccc1C(=O)Nc1c[nH]nc1C(=O)Nc1ccc(CC(=O)NO)cc1 | 24.5% | 24.2% | 9.38% | 1.58% | – | – | – | – | – |
| O=C(Cc1ccc(NC(=O)c2n[nH]cc2NC(=O)c2ccccc2Cl)cc1)NO | 4.52% | 26.6% | 0.84% | 9.04% | – | – | – | – | – |
| O=C(CCCCNC(=O)c1n[nH]cc1NC(=O)c1c(F)cccc1F)NO | 14.9% | 15.8% | 5.76% | 0.4% | – | – | – | – | – |
| O=C(CCCCCNC(=O)c1n[nH]cc1NC(=O)c1c(Cl)cccc1Cl)NO | 4.66% | 21.3% | 3.02% | 15.1% | – | – | – | – | – |
| O=C(Cc1ccc(NC(=O)c2n[nH]cc2NC(=O)c2c(F)cccc2F)cc1)NO | 25.6% | 30.2% | 29.9% | 0.04% | – | – | – | – | – |
